# ± gives the standard deviation of the reports.
row,Structure (SMILES),glass transition temperature [°C]
1,*O[Si](*)(C)CCCOc1ccc(C(=O)Oc2ccc(OC(=O)CCCCC(=O)OC3CC(C)CCC3C(C)C)cc2)cc1 (repeat unit),45.30
2,*CCCCCCCCOc1ccc(/C=C2\CC/C(=C\c3ccc(OCCCCCCCCOP(=O)(O*)OCC)c(OC)c3)C2=O)cc1OC (repeat unit),62.00
3,*Oc1ccc(NC(=O)c2ccc(S(=O)(=O)c3ccc(C(=O)Nc4ccc(Oc5ccc(C6(c7ccc(*)cc7)CC7CCC6C7)cc5)cc4)cc3)cc2)cc1 (repeat unit),287.00
4,*OC(=O)C(CC(C)C)NC(=O)CCCCCCCCC(=O)NC(CC(C)C)C(=O)OC1COC2C(*)COC12 (repeat unit),89.00
5,*O[Si](*)(C)CCCOCCOCCOC (repeat unit),-90.10
6,*c1cccc(P(=O)(c2ccc(C(F)(F)F)cc2)c2cccc(-n3c(=O)c4cc5c(=O)n(*)c(=O)c5c(-c5ccc(C(F)(F)F)cc5)c4c3=O)c2)c1 (repeat unit),303.00
7,*C(=O)c1ccc2c(c1)C(=O)N(c1ccc(C(=O)c3cccc(C(=O)c4ccc(N5C(=O)c6ccc(*)cc6C5=O)cc4)c3)cc1)C2=O (repeat unit),276.00
8,*c1ccc(Oc2ccc(-n3nccc3-c3ccc(-c4ccnn4*)cc3)cc2)cc1 (repeat unit),243.00
9,*CC(*)(C)C(=O)OCCCCn1c2ccccc2c2ccccc21 (repeat unit),59.20
10,*OC(=O)c1ccc(CCCCCCc2ccc(C(*)=O)cc2)cc1 (repeat unit),20.00
11,*Oc1ccc(C(c2ccccc2)(c2ccccc2)c2ccc(Oc3ccc(C(=O)Nc4ccc(NC(=O)c5ccc(*)cc5)cc4)cc3)cc2)cc1 (repeat unit),254.00
12,*Oc1ccc(OC2(F)C(*)(F)C(F)(F)C2(F)F)cc1 (repeat unit),41.00
13,*c1ccc(Oc2ccc(-c3c(-c4ccccc4)c4c(c(-c5ccccc5)c3-c3ccccc3)C(=O)N(c3cccc(N5C(=O)c6c(c(-c7ccccc7)c(-c7ccccc7)c(*)c6-c6ccccc6)C5=O)c3)C4=O)cc2)cc1 (repeat unit),357.00
14,*c1ccc(Oc2ccc(Oc3ccc(P(=O)(c4ccccc4)c4ccc(Oc5ccc(Oc6ccc(-c7nc8cc9sc(*)nc9cc8s7)cc6)cc5)cc4)cc3)cc2)cc1 (repeat unit),255.00
15,*Oc1ccc(NC(=O)c2cc(NC(=O)C34CC5CC(CC(C5)C3)C4)cc(C(=O)Nc3ccc(*)cc3)c2)cc1 (repeat unit),335.00
16,*c1ccc(Oc2ccc(NC(=O)c3ccc(Oc4ccc5c(c4)C(=O)N(*)C5=O)cc3)cc2)cc1 (repeat unit),262.00
17,*c1nnc(-c2sc(-c3nnc(-c4cc(OCCCCCCCC)c(*)cc4OCCCCCCCC)o3)cc2CCCCCCCC)o1 (repeat unit),124.30
18,*c1ccc(Oc2ccc(C(C)(C)c3ccc(Oc4ccc(N5C(=O)C6CCC7C(=O)N(*)C(=O)C7C6C5=O)cc4)cc3)cc2)cc1 (repeat unit),263.50
19,*c1cc(C(=O)OCCC)cc(N2C(=O)CC(C3Cc4ccccc4C4C(=O)N(*)C(=O)C43)C2=O)c1 (repeat unit),249.00
20,*c1ccc2c(c1)C(=O)N(c1ccc(C(=O)Nc3ccc(Oc4ccc(C(C)(C)c5ccc(Oc6ccc(NC(=O)c7ccc(N8C(=O)c9ccc(C(*)(C(F)(F)F)C(F)(F)F)cc9C8=O)cc7)cc6)cc5)cc4)cc3)cc1)C2=O (repeat unit),266.00
21,*Oc1ccc(C(C)(CC)c2ccc(OC(*)=O)c(Cl)c2)cc1Cl (repeat unit),142.00
22,*CC(*)c1ccccc1C(=O)OCC(C)C (repeat unit),127.00

row,Structure (SMILES),glass transition temperature [°C]
1,*CC(*)C(=O)Oc1cccc(C(=O)OC)c1 (repeat unit),38.00
2,*/C(=C(/*)c1ccc(C(C)(C)C)cc1)c1ccccc1 (repeat unit),200.00
3,*C(=O)c1ccc(N(*)CCCCCCCC)cc1 (repeat unit),30.00
4,*Nc1ccc(NC(=O)c2cc(NC(=O)c3ccncc3)cc(C(*)=O)c2)cc1 (repeat unit),327.00
5,*C([2H])([2H])C(*)([2H])C([2H])([2H])[2H] (repeat unit),0.00
6,*O/C(=C/CC)C(CC)C(*)=O (repeat unit),-15.90
7,*CCCCCCCCCCOC(=O)CCCCC(=O)O* (repeat unit) [Poly(decamethylene adipate) ],-57 ± 6.6
8,*CC1CC(CNC(=O)c2cccc(C(=O)N*)c2)CC(C(C)(C)C)C1 (repeat unit),209.00
9,*c1ccc(-c2cc(-c3ccc(-c4ccccc4)cc3)cc(-c3ccc(N4C(=O)c5ccc(NC(=O)Nc6ccc(-c7cc(-c8ccc(-c9ccccc9)cc8)cc(-c8ccc(NC(=O)Nc9ccc%10c(c9)C(=O)N(*)C%10=O)cc8)n7)cc6)cc5C4=O)cc3)n2)cc1 (repeat unit),272.00
10,*OC(C)C#CC#CC(C)OC(=O)c1ccc(C(*)=O)cc1 (repeat unit),133.00
11,*Oc1ccc(C2(c3ccc(Oc4ccc(C(=O)c5ccc(*)cc5)cc4)cc3)c3ccccc3-c3ccccc32)cc1 (repeat unit),252.00
12,*O[Si](*)(CC)CC (repeat unit),-139.00
13,*CNC(=O)OCC(OC(=O)NCc1ccc(*)o1)c1ccco1 (repeat unit),30.00
14,*Oc1ccc(C(=O)OCCCCCCCOC(=O)c2ccc(OC(=O)c3ccc(C(*)=O)cc3)cc2)cc1 (repeat unit),70.00
15,*CC(*)c1cccc(N(c2ccc(C)cc2)c2ccc(C)cc2)c1 (repeat unit),126.50
16,*CCC(=O)Nc1ccc(NC(=O)CCN2C(=O)c3ccc(C(=O)c4ccc5c(c4)C(=O)N(*)C5=O)cc3C2=O)cc1 (repeat unit),237.00
17,*C(=O)Nc1ccc(NC(=O)c2ccc3c(c2)C(=O)N(c2ccc(-c4sc(-c5ccc(N6C(=O)c7ccc(*)cc7C6=O)cc5)c(-c5ccccc5)c4-c4ccccc4)cc2)C3=O)cc1 (repeat unit),333.00
18,*CCOC(=O)CCCCC(=O)O* (repeat unit) [Poly(ethylene adipate)],-48.83 ± 8
19,*c1ccc(Oc2ccc(Oc3ccc(N4C(=O)C(c5ccccc5)=C(c5ccc(C6=C(c7ccccc7)C(=O)N(*)C6=O)cc5)C4=O)cc3)cc2)cc1 (repeat unit),267.00
20,*CCCS(=O)(=O)CCCS(=O)(=O)CCCOC(=O)c1ccccc1C(=O)O* (repeat unit),52.00
21,*c1ccc2c(c1)C(=O)N(c1ccc(Oc3ccc(N4C(=O)c5ccc(C(*)(C(F)(F)F)C(F)(F)F)cc5C4=O)cc3Br)c(Br)c1)C2=O (repeat unit),299.00
22,*c1ccc2c(c1)C(CCCCCCCC)(CCCCCCCC)c1cc(-c3ccc(*)c4nsnc34)ccc1-2 (repeat unit),113.2 ± 1.8

row,Structure (SMILES),glass transition temperature [°C]
1,*c1c(C)cc(C(c2cc(C(F)(F)F)cc(C(F)(F)F)c2)c2cc(C)c(N3C(=O)c4ccc(-c5ccc6c(c5)C(=O)N(*)C6=O)cc4C3=O)c(C)c2)cc1C (repeat unit),317.40
2,*CC(*)c1ccccc1COCC (repeat unit),74.00
3,*c1cccc(-c2nc3cc(-c4ccc5nc(-c6ccccc6)c(*)nc5c4)ccc3nc2-c2ccccc2)c1 (repeat unit),320.00
4,*CC(F)(F)C(F)(F)C(F)(F)COC(=O)c1cccc(C(F)(F)C(F)(F)C(F)(F)c2cccc(C(=O)O*)c2)c1 (repeat unit),24.00
5,*CC(=O)c1ccc(Oc2ccc(C(=O)COc3ccc(/C=C4\CCC/C(=C\c5ccc(O*)c(OC)c5)C4=O)cc3OC)cc2)cc1 (repeat unit),211.8
6,*c1cc(SCCCCCC)c(*)s1 (repeat unit),32.00
7,*c1ccc(Oc2ccc(-c3ccc(Oc4ccc(N5C(=O)c6ccc(Oc7cccc(Oc8ccc9c(c8)C(=O)N(*)C9=O)c7)cc6C5=O)cc4)cc3)cc2)cc1 (repeat unit),200.00
8,*CC(=O)NCCCCCCNC(=O)COC(=O)CCCCCCC(=O)O* (repeat unit),8.00
9,*CC(*)(C)C(=O)Oc1c(Cl)c(Cl)c(Cl)c(Cl)c1Cl (repeat unit),110.00
10,*CC(*)(C#N)C(=O)OCCCCCCC (repeat unit),102.00
11,*CC(C)(C)C1C(=O)N(CCCC)C(=O)C1* (repeat unit),80.00
12,*CC(*)(C)C(=O)OCCCCCCc1ccc(/N=N/c2ccc(OC(F)(F)F)cc2)cc1 (repeat unit),194.50
13,*Oc1ccc(NC(=O)c2ccc(P(=O)(c3ccccc3)c3ccc(C(=O)Nc4ccc(Oc5ccc(P(=O)(c6ccccc6)c6ccc(*)cc6)cc5)cc4)cc3)cc2)cc1 (repeat unit),225.00
14,*OC1C(CO)OC(*)C(O)C1O (repeat unit),332.00
15,*c1ccc2c(c1)C(=O)N(c1ccc(Oc3ccc(C(C)(C)c4ccc(Oc5ccc(N6C(=O)c7ccc(C(*)(C(F)(F)F)C(F)(F)F)cc7C6=O)cc5)cc4)cc3)cc1)C2=O (repeat unit),246.70 ± 3.3
16,*Oc1ccc(C(=O)c2ccc(Oc3ccc(C(=O)c4ccc(Oc5ccc(Cc6ccc(*)cc6)cc5)cc4)cc3)cc2)cc1 (repeat unit),128.00
17,*CCCN1C(=O)C2C3C=CC(C4C(=O)N(*)C(=O)C34)C2C1=O (repeat unit),210.00
18,*CC1CC2CC1C1CCC(Cn3c(=O)c4cc5c(=O)n(*)c(=O)c5cc4c3=O)C21 (repeat unit),265.00
19,*Oc1ccc(CC(NC(=O)Cc2ccc(OC(=O)COCC(*)=O)cc2)C(=O)OCCCCCC)cc1 (repeat unit),46.00
20,*CC(OC(=O)C(Cc1ccccc1)NC(=O)OC(C)(C)C)C(COC(=O)O*)OC(=O)C(Cc1ccccc1)NC(=O)OC(C)(C)C (repeat unit),82.40

# From the PolyMetriX glass transition set
